Patent publication US20260266837A1, “Methods for Cancer Recurrence Detection and Treatment Thereof” (Institut Curie, priority 2022, published 2026)

Test system: MDA-MB-468 cells
Test: Lineage barcode frequencies and diversity under 5-FU with EZH2i
Assay type: cell-based, human
Description: Lentivirus packaging and cell transduction. Lentivirus was produced by transfecting the barcode plasmids pRRL-CMV-GFP-BCv2Ascl and p8.9-QV and pVSVG into HEK293T cells as previously described^30. MDA-MB-468 cells from ATCC were infected at passage 11 with lentivirus produced from the barcode library (pRRL-CMV-GFP-BCv 2Ascl) which includes 18206 different barcodes of 20 bp of a random stretch, at a low multiplicity of infection (MOI 0.1) to minimize the number of cells marked by multiple barcodes. Three weeks after transduction, cells were sorted for GFP expression to select cells with barcode insertion, and used for drug treatment.
Bulk lineage barcode library preparation and sequencing. Lineage barcodes are recovered by isolating genomic DNA from cells of interest (NucleoSpin Tissue, Mini kit for DNA from cells and tissue, Macherey Nagel, Ref: 740952.50). From the isolated genomic DNA, barcodes are amplified with three nested PCR steps as decribed in^30 (see Extended Table 1 for primer sequence). In short, after a first specific PCR for the common region of the lineage barcodes, the amplified material was prepared for sequencing by addition of the illumina sequencing adaptaters and indexing and purification. Sequencing was done in order to obtain 50 reads, on average, per barcoded cell.
Single-cell lineage barcode extraction from 10× datasets. […] To avoid running scripts on all reads we: 1. used samtools to extract all unmapped reads from the 10× output bam file, 2. used awk to take reads with either a 3′ or 5′ 20 bp match to the constant flanking region of the barcode allowing one mismatch, 3. retained only reads with both a 10× cell barcode and 10× UMI. We then located the 20 bp match to one of the constant flanking regions allowing one mismatch (but filtered out reads where a mismatch was in the first or last base to ensure the barcode is at the expected position). We then further required a 4 bp exact match on the other side of the barcode, and then extracted the 20 bp viral barcode, read name, 10× cell barcode and 10× UMI.
To assign one viral barcode to each 10× cell barcode, we determined a consensus viral barcode for each UMI. For each position in the barcode we returned the most frequently observed base and the proportion of reads supporting this consensus. Barcodes associated with a 10× CB-UMI pair were filtered if the proportion of reads supporting a position was ≤0.5 at ≥3 positions. […]
Bulk barcode pre-processing. […] In brief, using R-3.4.0 (R Development Core Team (2019) http://www.R-project.org), raw reads were first filtered for perfect to the input index-and common-sequences using XCALIBR (https://github.com/NKI-GCF/xcalibr) and filtered against the barcode reference list. […]

CCCc1cc(C)[nH]c(=O)c1CNC(=O)c1cc(-c2ccc(N3CCN(C(C)C)CC3)nc2)cc2c1cnn2C(C)C [EZH2i-1]
diversity in lineage barcodes in CDH2+ persister populations (R3 cluster, 5-FU with versus without EZH2i-1, p<10^-4): over 2 fold-increase | correlation scores between lineage frequencies in 5-FU and DMSO treated population (co-treatment with 5-FU, bulk lineage barcodes): increased correlation scores
